Experimental data reported in PubChem BioAssay (NCI).
“And” between values parts separate entries of the source, which are not always exact repeats. Identical values can stand only once.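 Growth conditions: 96-well plates. Treatment: test compound, 48 hours, 5 concentrations. Analysis: linear interpolation between bracketing concentrations; unreached endpoints set to highest concentration. Abbreviation: GI50, concentration required for 50% inhibition of growth. TGI marks complete inhibition of growth.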

How the values were obtained:
Assay in all cases: NCI-60 cell line screen, 48 h
[1] = tested on: NCI-H23 lung
[2] = tested on: SK-OV-3 ovarian
[3] = tested on: KM12 colon
[4] = tested on: U251 CNS
[5] = tested on: TK-10 renal
[6] = tested on: MOLT-4 leukemia
[7] = tested on: MALME-3M melanoma
[8] = tested on: SN12C renal
[9] = tested on: OVCAR-5 ovarian
[10] = tested on: A549 NSCLC
[11] = tested on: HT29 colon
[12] = tested on: SF-268 CNS
[13] = tested on: NCI-H460 lung
[14] = tested on: A498 renal
[15] = tested on: HS 578T breast
[16] = tested on: HL-60(TB) leukemia
[17] = tested on: CAKI-1 renal
[18] = tested on: NCI-H226 lung
[19] = tested on: HCC-2998 colon
[20] = tested on: CCRF-CEM leukemia
[21] = tested on: LOX IMVI melanoma
[22] = tested on: HOP-62 NSCLC
[23] = tested on: HCT-116 colon
[24] = tested on: IGROV1 ovarian
[25] = tested on: NCI-H522 lung
[26] = tested on: UACC-257 melanoma
[27] = tested on: SK-MEL-5 melanoma
[28] = tested on: HCT-15 colon
[29] = tested on: NCI/ADR-RES ovarian
[30] = tested on: UO-31 renal
[31] = tested on: RPMI-8226 leukemia
[32] = tested on: OVCAR-3 ovarian
[33] = tested on: T-47D breast
[34] = tested on: ACHN renal
[35] = tested on: COLO 205 colon
[36] = tested on: BT-549 breast
[37] = tested on: HOP-92 NSCLC
[38] = tested on: SF-539 CNS
[39] = tested on: EKVX NSCLC
[40] = tested on: SK-MEL-2 melanoma
[41] = tested on: K-562 leukemia
[42] = tested on: SNB-75 CNS
[43] = tested on: UACC-62 melanoma
[44] = tested on: OVCAR-4 ovarian
[45] = tested on: SR leukemia
[46] = tested on: OVCAR-8 ovarian
[47] = tested on: PC-3 prostate
[48] = tested on: SF-295 CNS
[49] = tested on: 786-0 renal
[50] = tested on: SNB-19 CNS
[51] = tested on: DU-145 prostate
[52] = tested on: RXF 393 renal
[53] = tested on: MDA-MB-435
[54] = tested on: SK-MEL-28 melanoma
[55] = tested on: MCF7 breast
[56] = tested on: MDA-MB-231 breast
[57] = tested on: SW-620 colon

With CN(C)c1ccc2nc3ccc(N)cc3[n+](-c3ccccc3)c2c1 the GI50 [1] was 1730 nM and 461 nM, the TGI [1] was 19.8 µM and 5.1 µM and the GI50 [2] was 18.2 µM and 4.73 µM. The TGI [2] was 67.3 µM and > 100 µM, the GI50 [3] was 1750 nM and 1510 nM and the TGI [3] was 10.2 µM and 26.1 µM. For the same compound, the GI50 [4] was 1350 nM and 640 nM, the TGI [4] was 34.4 µM and 6.5 µM and the GI50 [5] was 3.87 µM and 2.48 µM. The TGI [5] was 27.4 µM and 28.4 µM, the GI50 [6] was 5140 nM and 703 nM and the GI50 [7] was 1570 nM and 560 nM. For the same compound, the TGI [7] was 10.1 µM and 4.59 µM, the GI50 [8] was 1920 nM and 1340 nM and the TGI [8] was 46 µM and 10.4 µM. The GI50 [9] was 13.3 µM, the TGI [9] was > 81.7 µM and the TGI [10] was > 100 µM and 11.6 µM. For the same compound, the GI50 [11] was 2740 nM and 3190 nM, the TGI [11] was 16.1 µM and 16.2 µM and the GI50 [12] was 1940 nM and 1700 nM. The TGI [12] was 20.9 µM and 19.7 µM, the GI50 [13] was 2530 nM and 1900 nM and the TGI [13] was 11.4 µM and 11.2 µM. The GI50 [14] was 3.94 µM and 19.6 µM, the TGI [14] was 37.8 µM and > 100 µM and the GI50 [15] was 3.24 µM and 2.93 µM. For the same compound, the TGI [15] was 28 µM and 56.2 µM, the GI50 [16] was 578 nM and the TGI [16] was 15.9 µM. For the same compound, the TGI [17] was 52.8 µM and 7.47 µM, the GI50 [18] was 8.77 µM and 13 µM and the TGI [18] was 42 µM and 70.1 µM. The GI50 [19] was 1.87 µM and 9.25 µM, the TGI [19] was 16.1 µM and 41.8 µM and the GI50 [20] was 4090 nM and 1250 nM. For the same compound, the TGI [20] was > 100 µM and 21.7 µM, the GI50 [21] was 2650 nM and 515 nM and the TGI [21] was 18.3 µM. The GI50 [22] was 2310 nM and 2920 nM, the TGI [22] was 18.9 µM and 14.4 µM and the GI50 [23] was 2890 nM and 420 nM. The TGI [23] was 20.4 µM and 2.08 µM, the GI50 [24] was 3310 nM and 1740 nM and the TGI [24] was 39.3 µM and 5.53 µM. For the same compound, the GI50 [25] was 1720 nM, the TGI [25] was 10.5 µM and the GI50 [26] was 757 nM and 705 nM. The TGI [26] was > 25.2 µM and 3.33 µM, the GI50 [27] was 1070 nM and 255 nM and the TGI [27] was 3020 nM and 827 nM. The TGI [28] was > 100 µM and 24 µM, the TGI [29] was > 100 µM and 11.9 µM and the GI50 [30] was 23.6 µM and 4.98 µM. The TGI [30] was > 100 µM and 24.8 µM, the GI50 [31] was 482 nM and 177 nM and the TGI [31] was 7.4 µM and 10 µM. For the same compound, the GI50 [32] was 474 nM and 317 nM, the TGI [32] was 9.02 µM and 12.7 µM and the GI50 [33] was 457 nM and 662 nM. The TGI [33] was 6.5 µM and 21 µM, the TGI [34] was 76.9 µM and 31.8 µM and the GI50 [35] was 759 nM and 598 nM. The TGI [35] was 2990 nM and 2750 nM, the GI50 [36] was 2460 nM and 584 nM and the TGI [36] was 14.2 µM and 61.9 µM. For the same compound, the GI50 [37] was 1850 nM, the TGI [37] was 8.24 µM and the GI50 [38] was 2610 nM and 332 nM. For the same compound, the TGI [38] was 13.5 µM and 6.59 µM, the GI50 [39] was 1390 nM and 870 nM and the TGI [39] was 23.1 µM and 23 µM. For the same compound, the GI50 [40] was 2390 nM and 1740 nM, the TGI [40] was 6.16 µM and 11.1 µM and the GI50 [41] was 1510 nM and 424 nM. For the same compound, the TGI [41] was > 100 µM and 68.7 µM, the GI50 [42] was 2440 nM and 2800 nM and the TGI [42] was 17 µM and 9.52 µM. For the same compound, the GI50 [43] was 2040 nM and 1850 nM, the TGI [43] was 13 µM and 10.3 µM and the GI50 [44] was 396 nM and 280 nM. The GI50 [45] was 2440 nM and 533 nM, the GI50 [46] was 2020 nM and 1070 nM and the TGI [46] was > 66 µM and 7.69 µM. For the same compound, the TGI [47] was 31.2 µM and 3.22 µM, the GI50 [48] was 1750 nM and 584 nM and the TGI [48] was 7.41 µM and 24.4 µM. The GI50 [49] was 10.9 µM and 2.19 µM, the TGI [49] was 33.6 µM and 49.2 µM and the GI50 [50] was 1690 nM. For the same compound, the TGI [50] was 47.1 µM, the GI50 [51] was 5.32 µM and 1.95 µM and the TGI [51] was 33 µM and 3.96 µM. The GI50 [52] was 16.3 µM and 10.8 µM, the TGI [52] was 67.5 µM and 26.6 µM and the GI50 [53] was 1790 nM and 1090 nM. The TGI [53] was 8.77 µM and 2.91 µM, the GI50 [54] was 3.76 µM and 7.38 µM and the TGI [54] was 20 µM and 37.7 µM. The GI50 [55] was 519 nM and 369 nM, the TGI [55] was 30.3 µM and 3.15 µM and the GI50 [56] was 4610 nM and 492 nM. For the same compound, the TGI [56] was 31.5 µM and 17.1 µM, the GI50 [57] was 2980 nM and 1180 nM and the TGI [57] was 31 µM and 12.2 µM.
